We go through 19 compounds from patent US10752604B2, “C-glucoside derivative containing fused phenyl ring or pharmaceutically acceptable salt thereof, process for preparing same, and pharmaceutical composition comprising same” (Je II Pharmaceutical Co., Ltd., priority 2016, dated 2020).

For experiment [1], the target named is human SGLT1 (Homo sapiens (Human), UniProt P13866). The experiment in a line: Inhibitory effect on human SGLT1 activity (14C-AMG uptake in CHO cells expressing hSGLT1). The experiment is classed as cell-based. To be noted: 14C-AMG transport, CHO cells expressing hSGLT1, 2 hours. The text has this:
(§1) Human SGLT1 (hSGLT1), human SGLT2 (hSGLT2) genes were amplified from a human marathon-ready cDNA library (Clontech)) by means of an PCR method, after which resulting amplified sequences were combined with a pcDNA 3.1(+) vector, which was a mammalian expression vector, so as to prepare recombinant expression vectors pcDNA3.1(+)/hSGLT1, pcDNA3.1(+)/hSGLT2. Resulting recombinant expression vectors were transformed into Chinese Hamster Ovarian cells, after which stably transformed clones were selected by means of a colony picking method by using a resistance to G418, a selective marker included in the vector. Out of selected clones, clones for expressing hSGLT1 and hSGLT2 were selected based on activity in analysis of ^14C-α-methyl-D-glucopyranoside (^14C-AMG) transport.
To analyze a sodium-dependent glucose transport, cells for expressing hSGLT1 and hSGLT2 were seeded at 1×10^5 cells per well into a 96-well culture plate, after which resulting cells were cultured in an RPMI 1640 medium containing 10% fetal bovine serum (FBS). In 1 day after culture, the resulting cells were cultured in a pre-treatment buffer solution (10 mM HEPES, 5 mM tris, 140 mM choline chloride, 2 mM KCl, 1 mM CaCl2 and 1 mM MgCl2, pH 7.4) under 37° C./5% CO2 conditions for 10 minutes. Then, the resulting cells were cultured in a uptake buffer solution (10 mM HEPES, 5 mM tris, 140 mM NaCl, 2 mM KCl, 1 mM CaCl2, 1 mM MgCl2 and 1 mM AMGS pH 7.4) containing 14C-AMG (8 μM) and a compound of the present disclosure or a dimethyl sulfoxide (DMSO) vehicle under 37° C./5% CO2 conditions for 2 hours. After culture, the cells were washed twice with a washing buffer solution (a pre-treatment buffer solution containing 10 mM AMG at room temperature), after which a radiation thereof was measured by using a liquid scintillation counter. IC50 of each compound was measured according to a non-linear regression analysis by using SigmaPlot (Document Analytical Biochemistry 429: 70-75, Molecular and Cellular Biochemistry 280: 91-98, 2005). SGLT1/2 in-vitro assay results are shown in a following Table 1.

The target of experiment [2] is human SGLT2 (Homo sapiens (Human), UniProt P31639). In words: Inhibitory effect on human SGLT2 activity (14C-AMG uptake in CHO cells expressing hSGLT2). The experiment is classed as cell-based. To be noted: 14C-AMG transport, CHO cells expressing hSGLT2, 2 hours.
Chain of human SGLT2 (P31639 whole entry): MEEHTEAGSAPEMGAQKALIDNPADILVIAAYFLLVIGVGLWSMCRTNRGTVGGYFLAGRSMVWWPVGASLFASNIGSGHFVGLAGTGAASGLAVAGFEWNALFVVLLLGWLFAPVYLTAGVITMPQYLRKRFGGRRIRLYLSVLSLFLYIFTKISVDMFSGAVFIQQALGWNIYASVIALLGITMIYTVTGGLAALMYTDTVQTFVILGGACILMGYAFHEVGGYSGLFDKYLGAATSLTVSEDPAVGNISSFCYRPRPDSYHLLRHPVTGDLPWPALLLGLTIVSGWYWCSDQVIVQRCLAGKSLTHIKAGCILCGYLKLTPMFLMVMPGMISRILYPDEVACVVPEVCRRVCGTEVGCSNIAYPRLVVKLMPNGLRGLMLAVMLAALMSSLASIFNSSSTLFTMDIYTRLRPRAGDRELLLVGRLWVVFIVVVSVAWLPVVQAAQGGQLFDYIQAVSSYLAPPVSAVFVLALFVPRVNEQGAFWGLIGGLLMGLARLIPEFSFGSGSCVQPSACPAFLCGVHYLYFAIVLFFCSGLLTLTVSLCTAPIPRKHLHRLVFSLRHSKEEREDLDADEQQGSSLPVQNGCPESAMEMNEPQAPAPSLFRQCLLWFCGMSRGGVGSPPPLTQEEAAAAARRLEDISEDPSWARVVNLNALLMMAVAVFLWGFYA
From the text: as §1
In 1 day after culture, the resulting cells were cultured in a pre-treatment buffer solution (10 mM HEPES, 5 mM tris, 140 mM choline chloride, 2 mM KCl, 1 mM CaCl2 and 1 mM MgCl2, pH 7.4) under 37° C./5% CO2 conditions for 10 minutes. Then, the resulting cells were cultured in a uptake buffer solution (10 mM HEPES, 5 mM tris, 140 mM NaCl, 2 mM KCl, 1 mM CaCl2, 1 mM MgCl2 and 1 mM AMGS pH 7.4) containing 14C-AMG (8 μM) and a compound of the present disclosure or a dimethyl sulfoxide (DMSO) vehicle under 37° C./5% CO2 conditions for 2 hours. After culture, the cells were washed twice with a washing buffer solution (a pre-treatment buffer solution containing 10 mM AMG at room temperature), after which a radiation thereof was measured by using a liquid scintillation counter.

Usually IC50 stands for the concentration that inhibits the measured activity by half. Higher therefore signals lower potency.

Each structure is given as a SMILES string.

Chain of human SGLT1 (P13866 whole entry): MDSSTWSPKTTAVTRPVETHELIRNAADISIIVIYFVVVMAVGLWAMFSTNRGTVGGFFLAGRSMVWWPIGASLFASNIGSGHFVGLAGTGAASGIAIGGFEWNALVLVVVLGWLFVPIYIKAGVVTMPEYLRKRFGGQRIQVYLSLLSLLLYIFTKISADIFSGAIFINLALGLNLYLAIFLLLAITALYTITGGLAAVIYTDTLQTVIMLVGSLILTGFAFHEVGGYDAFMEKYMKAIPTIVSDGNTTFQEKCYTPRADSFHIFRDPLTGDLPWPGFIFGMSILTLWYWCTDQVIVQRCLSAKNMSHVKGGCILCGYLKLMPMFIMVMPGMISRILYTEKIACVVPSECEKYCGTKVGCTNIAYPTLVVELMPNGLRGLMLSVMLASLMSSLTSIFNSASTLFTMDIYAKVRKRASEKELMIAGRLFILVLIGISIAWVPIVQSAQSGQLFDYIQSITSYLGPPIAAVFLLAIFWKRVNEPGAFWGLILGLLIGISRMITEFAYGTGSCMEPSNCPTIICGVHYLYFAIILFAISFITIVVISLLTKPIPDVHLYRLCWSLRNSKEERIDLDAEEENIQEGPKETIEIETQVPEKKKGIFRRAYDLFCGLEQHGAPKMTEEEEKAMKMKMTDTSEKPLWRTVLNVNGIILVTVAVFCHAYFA

As to `CCCc1c([C@@H]2O[C@H](CO)[C@@H](O)[C@H](O)[C@H]2O)cc(Cc2ccc(C)cc2)c2c1CCC2` [Example 53, (2R,3S,4R,5R,6S)-2-(hydroxymethyl)-6-(7-(4-methylbenzyl)-4-propyl-2,3-dihydro-1H-indene-5-yl)tetrahydro-2H-pyran-3,4,5-triol], the IC50 was 94.7 nM in experiment [1] and 1.83 nM in experiment [2].
As to `CCc1ccc(Cc2cc([C@@H]3O[C@H](CO)C(O)[C@H](O)C3O)c(C)c3c2CCC3)cc1` (stereo in doubt) [Example 5, (2S,3R,4R,5S,6R)-2-(7-(4-ethylbenzyl)-4-methyl-2,3-dihydro-1H-indene-5-yl)-6-(hydroxymethyl)tetrahydro-2H-pyran-3,4,5-triol], the IC50 in experiment [1] worked out at 40 nM; in experiment [2] it was 2.8 nM.
In the same order, the values of `COc1ccc(Cc2cc([C@@H]3O[C@H](CO)[C@@H](O)[C@H](O)[C@H]3O)c(C)c3c2CCC3)cc1` [Example 1, (2R,3S,4R,5R,6S)-2-(hydroxymethyl)-6-(7-(4-methoxybenzyl)-4-methyl-2,3-dihydro-1H-indene-5-yl)tetrahydro-2H-pyran-3,4,5-triol] are 9.1 nM and 1.3 nM.
`Cc1c([C@@H]2O[C@H](CO)[C@@H](O)[C@H](O)[C@H]2O)cc(Cc2ccc(Cl)cc2)c2c1CCC2` [Example 16, (2S,3R,4R,5S,6R)-2-(7-(4-chlorobenzyl)-4-methyl-2,3-dihydro-1H-indene-5-yl)-6-(hydroxymethyl)tetrahydro-2H-pyran-3,4,5-triol] yielded a 50% inhibitory concentration (IC50) in experiment [1] of 14.3 nM.
As to `CCCc1c([C@@H]2O[C@H](CO)[C@@H](O)[C@H](O)[C@H]2O)cc(Cc2ccc(OC)cc2)c2c1CCC2` [Example 52, (2R,3S,4R,5R,6S)-2-(hydroxymethyl)-6-(7-(4-methoxybenzyl)-4-propyl-2,3-dihydro-1H-indene-5-yl)tetrahydro-2H-pyran-3,4,5-triol], the IC50 was 236 nM in experiment [1] and 9.04 nM in experiment [2].
In the same order, the values of `CCc1c([C@@H]2O[C@H](CO)[C@@H](O)[C@H](O)[C@H]2O)cc(Cc2ccc(C)cc2)c2c1CCC2` [Example 41, (2S,3R,4R,5S,6R)-2-(4-ethyl-7-(4-methylbenzyl)-2,3-dihydro-1H-indene-5-yl)-6-(hydroxymethyl)tetrahydro-2H-pyran-3,4,5-triol] are 41.8 nM and 3.68 nM.
Consider `C=Cc1ccc(Cc2cc([C@@H]3O[C@H](CO)[C@@H](O)[C@H](O)[C@H]3O)c(C)c3c2OCC3)cc1` [Example 34, (2R,3S,4R,5R,6S)-2-(hydroxymethyl)-6-(4-methyl-7-(4-vinylbenzyl)-2,3-dihydrobenzofuran-5-yl)tetrahydro-2H-pyran-3,4,5-triol], for which, in experiment [1], half-maximal inhibition (IC50) required 295 nM. In other words, the sub-micromolar range.
`Cc1c(C2O[C@H](CO)C(O)[C@H](O)C2O)cc(Cc2ccc(C(C)C)cc2)c2c1CCC2` (stereo in doubt) [Example 7, (2R,3S,4R,5R,6S)-2-(hydroxymethyl)-6-(7-(4-isopropylbenzyl)-4-methyl-2,3-dihydro-1H-indene-5-yl)tetrahydro-2H-pyran-3,4,5-triol]: the IC50 in experiment [1] worked out at 296 nM.
With `Cc1ccc([C@@H]2O[C@H](CO)[C@@H](O)[C@H](O)[C@H]2O)cc1Cc1ccc(-c2ccc(F)cc2)s1` [Canagliflozin, reference compound], the results for the IC50 in experiment [1] and in experiment [2] were 550 nM and 4.9 nM, respectively.
Take `Cc1ccc(Cc2cc([C@@H]3O[C@H](CO)[C@@H](O)[C@H](O)[C@H]3O)c(CC(C)C)c3c2CCC3)cc1` [Example 64, (2R,3S,4R,5R,6S)-2-(hydroxymethyl)-6-(4-isobutyl-7-(4-methylbenzyl)-2,3-dihydro-1H-indene-5-yl)tetrahydro-2H-pyran-3,4,5-triol]: the concentration for half-maximal inhibition (IC50) in experiment [1] stood at 518 nM; in experiment [2] it was 19.1 nM.
In the case of `CSc1ccc(Cc2cc([C@@H]3O[C@H](CO)[C@@H](O)[C@H](O)[C@H]3O)c(C)c3c2CCC3)cc1` [Example 13], the figures for the IC50 in experiment [1] and in experiment [2] were 15 nM and 1.2 nM, respectively.
Regarding `CCCCc1c([C@@H]2O[C@H](CO)[C@@H](O)[C@H](O)[C@H]2O)cc(Cc2ccc(C)cc2)c2c1CCC2` [Example 58, (2S,3R,4R,5S,6R)-2-(4-butyl-7-(4-methylbenzyl)-2,3-dihydro-1H-indene-5-yl)-6-(hydroxymethyl)tetrahydro-2H-pyran-3,4,5-triol], the IC50 in experiment [1] turned out to be 289 nM; in experiment [2], 12.1 nM.
For `CCc1c([C@@H]2O[C@H](CO)[C@@H](O)[C@H](O)[C@H]2O)cc(Cc2ccc(OC)cc2)c2c1CCC2` [Example 42, (2S,3R,4R,5S,6R)-2-(4-ethyl-7-(4-methoxybenzyl)-2,3-dihydro-1H-indene-5-yl)-6-(hydroxymethyl)tetrahydro-2H-pyran-3,4,5-triol], in that order: 60.5 nM and 2.73 nM.
For `CCCc1ccc(Cc2cc([C@@H]3O[C@H](CO)C(O)[C@H](O)C3O)c(C)c3c2CCC3)cc1` (stereo in doubt) [Example 6, (2R,3S,4R,5R,6S)-2-(hydroxymethyl)-6-(4-methyl-7-(4-propylbenzyl)-2,3-dihydro-1H-indene-5-yl)tetrahydro-2H-pyran-3,4,5-triol], in experiment [1], half-maximal inhibition (IC50) was put at 190 nM.
Regarding `CCCCc1c([C@@H]2O[C@H](CO)[C@@H](O)[C@H](O)[C@H]2O)cc(Cc2ccc(OC)cc2)c2c1CCC2` [Example 57, (2S,3R,4R,5S,6R)-2-(4-butyl-7-(4-methoxybenzyl)-2,3-dihydro-1H-indene-5-yl)-6-(hydroxymethyl)tetrahydro-2H-pyran-3,4,5-triol], the figures for the 50% inhibitory concentration (IC50) in experiment [1] and in experiment [2] were 373 nM and 5.86 nM, respectively.
`COc1ccc(Cc2cc([C@@H]3O[C@H](CO)[C@@H](O)[C@H](O)[C@H]3O)c(C(C)C)c3c2CCC3)cc1` [Example 61, (2R,3S,4R,5R,6S)-2-(hydroxymethyl)-6-(4-isopropyl-7-(4-methoxybenzyl)-2,3-dihydro-1H-indene-5-yl)tetrahydro-2H-pyran-3,4,5-triol]: the IC50 in experiment [1] was determined as 199 nM; in experiment [2], 2.04 nM.
With `CCc1ccc(Cc2cc([C@@H]3O[C@H](CO)[C@@H](O)[C@H](O)[C@H]3O)c(CC(C)C)c3c2CCC3)cc1` [Example 65, (2S,3R,4R,5S,6R)-2-(7-(4-ethylbenzyl)-4-isobutyl-2,3-dihydro-1H-indene-5-yl)-6-(hydroxymethyl)tetrahydro-2H-pyran-3,4,5-triol], the values for the IC50 in experiment [1] and in experiment [2] were 1610 nM and 38 nM, respectively.
For `CCOc1ccc(Cc2cc([C@@H]3O[C@H](CO)[C@@H](O)[C@H](O)[C@H]3O)c(C)c3c2CCC3)cc1` [Example 2, (2S,3R,4R,5S,6R)-2-(7-(4-ethoxybenzyl)-4-methyl-2,3-dihydro-1H-indene-5-yl)-6-(hydroxymethyl)tetrahydro-2H-pyran-3,4,5-triol], the IC50 was 76 nM in experiment [1] and 3 nM in experiment [2].
`Cc1c([C@@H]2O[C@H](CO)C(O)[C@H](O)C2O)cc(Cc2ccc(OC(C)C)cc2)c2c1CCC2` (stereo in doubt) [Example 3, (2R,3S,4R,5R,6S)-2-(hydroxymethyl)-6-(7-(4-isopropoxybenzyl)-4-methyl-2,3-dihydro-1H-indene-5-yl)tetrahydro-2H-pyran-3,4,5-triol] yielded a 50% inhibitory concentration (IC50) in experiment [1] of 142 nM.
